{"source": "patent US20050261246A1", "about": "“Methods for treating inflammatory and autoimmune diseases” (priority 2004, published 2005)", "key": {"[1]": {"experiment": "Body weight and tolerability in arthritic and non-arthritic rats of the AA study", "format": "in vivo, rat", "from_the_text": "Adult male Lewis rats (200-250 g) were purchased from Charles River Laboratories, Raleigh, N.C. and housed two per cage. The animals were allowed to acclimate to the Sun Health Research Institute's vivarium for 7 days prior to the start of the experiment. The animals were maintained on a 12-h off/on light schedule. For AA rats rodent Diet (Purina Lab Diet 5001) was placed in the bottom of the cage and water was supplied using long-stemmed sipper tubes for easy access to food and water. […] Animals were weighed and observed daily to ensure adequate weight gain and good general health. Body weights and footpad measures were started 1 week prior to the first adjuvant injection to acclimate the animals to these mild stresses and obtain baseline data. Other than the development of arthritis, the good health of the animals was maintained throughout the course of the experiments. Protocols for the use and care of the animals in the study were approved prior to beginning the experiments by the Sun Health Research Institute Animal Use and Care Committee and complied with NIH guidelines for the humane use and care of research animals. Dorsoplantar footpad measurements were completed every other day. Prior to sacrifice the animals were given a 1.0 ml intraperitoneal (i.p.) injection of 8% chloral hydrate in sterile saline and radiographs were taken of their hind limbs to assess disease severity. The animals were then sacrificed using an overdose of chloral hydrate.\nLewis rats were randomly assigned into five experimental groups of four animals per group. The experimental groups were 1) saline/M. Butyricum suspended in saline (non-arthritic; control for drug and antigen challenge), 2) sodium narcistatin/M. Butyricum suspended in saline (non-arthritic; drug control for antigen challenge), 3) no treatment-CFA (arthritic; control for stress of injections), 4) saline-CFA (arthritic; control for drug treatment), and 5) sodium-narcistatin-CFA (arthritic) treatments. The experiment was completed with an N=4 then repeated with an additional N=4. […]"}, "[2]": {"test_system": "splenic myeloid cells (CD11b+), T and B cells", "experiment": "Splenic cell populations in SNS-treated rats (immunostaining, flow cytometry)", "format": "in vivo, rat", "description": "B. Summary of myeloid cells (CD11b+ cells) present in various treatment groups. The statistical analysis was performed using t-test (*, N=4). SMB-saline, saline treated, non-arthritic, mycobacterium challenged; SMB-SNS, SNS treated, non-arthritic, mycobacterium challenged; CFA-saline, arthritic Saline treated; CFA-No-RX, arthritic no treatment (stress control); CFA-SNS, SNS treated arthritic. The experimental groups are the same as those in FIGS. 4-7.\nOne of characteristics of inflammatory response is an elevation of myeloid cells. […] The cells were stained with fluorescence-conjugated antibodies specific to CD3, CD45R, and CD11b, followed by analyses using flow cytometry to reveal T, B, and myeloid cells, respectively. Lymphoid and myeloid cells were distinguished based on their differing forward and side scatter patterns."}, "[3]": {"test_system": "CD11c+/CD40+/CD86+ spleen cells", "experiment": "Splenic dendritic, B and T cells in non-CAIA Balb/c mice treated with SNS (FACS)", "format": "in vivo, mouse", "settings": "5 mg/kg i.p. five consecutive days", "description": "(A) Reduction of CD11c+/CD40+/CD86+ cells isolated from spleens of non-CAIA Balb/c mice treated i.p. with SNS at 5 mg/kg or with PBS for 5 consecutive days. Spleens were isolated on the next day after the last SNS injection and splenocytes were analyzed using FACS. The percentage value represents CD11c+/CD40+/CD86+ cell percentage out of the entire splenocyte population. […] Values on X and Y axes represent fluorescence intensity for cell surface markers CD11c and CD40, B220, and CD90.2 (Thy-1), respectively.\nBalb/c mice were treated i.p. with SNS for five consecutive days at 5 mg/kg and their spleen were harvested the next day after the last injection. Control mice received same numbers of injection of PBS. Splenic cells were stained with fluorescence-labeled antibodies, and analyzed by flow cytometry."}, "[4]": {"test_system": "TNFα production", "experiment": "TNFα production from splenic cultures of Balb/c mice treated with SNS", "format": "in vivo, mouse", "settings": "non-CAIA Balb/c mice treated 5 days, p<0.01", "description": "Balb/c mice (n=5) were treated i.p. with SNS at 5 mg/Kg or with PBS for 5 consecutive days. Spleen were isolated on the next day after the last SNS injection and the splenocytes were stimulated with anti-CD3 antibody or LPS for 24 hrs, and supernatant were analyzed for TNF-α production.\nIsolated splenic cells were cultured with either immobilized […] (50 ug/ml) or 1 ug/ml LPS for […]. Cells without any stimulation were included as control. The supernatants from these cultures were analyzed for TNFα using BD™ CBA Mouse Inflammatory Kit (BD Biosciences), according to the manufacture's procedure. The average TNF concentration in each culture was derived from 2-3 independent experiments of 4-5 mice per group per experiment. No arthritis was induced in these experiments. […] Thus, TNFα production was reduced in the splenic culture of SNS-treated mice, in response to T cell activation by anti-CD3 antibody."}}, "data": [{"smiles": "O=C1N[C@@H]2C(=C[C@H](O)[C@H]3OP(=O)(O)O[C@H]32)c2cc3c(c(O)c21)OCO3", "note": "[SNS, sodium narcistatin]", "values": [{"measurement": "tolerability / overt toxicity, arthritic rats", "setting": "[1]; body weights and gross evaluation of internal organs at end point", "value": "no general signs of overt toxicity were apparent"}, {"measurement": "body weight, non-arthritic control rats", "setting": "[1]; day 28, chronic treatment, vs saline-treated non-arthritic controls, P<0.001", "value": "significantly decreased body weights"}, {"measurement": "body weight, arthritic rats", "setting": "[1]; day 28, vs untreated or saline-treated arthritic rats", "value": "not significantly different"}, {"measurement": "splenic myeloid population (CD11b+ cells)", "setting": "[2]; rats of the AA study, especially SNS/non-arthritic group", "value": "greatly reduced this myeloid population"}, {"measurement": "numbers of splenic T and B lymphocytes", "setting": "[2]; various treatment groups", "value": "comparable numbers of T and B lymphocytes"}, {"measurement": "CD11c+/CD86+/CD40+ spleen cells (mature dendritic cells)", "setting": "[3]", "value": "reduction of CD11c+/CD86+/CD40+ spleen cells"}, {"measurement": "T- and B-cell profile (B220, CD90.2)", "setting": "[3]", "value": "not affected"}, {"measurement": "TNFα in splenic cultures stimulated with anti-CD3", "setting": "[4]", "value": "significant reduction of TNFα"}]}]}
